Results: article PMC12598805, “Crystal Structure–Activity Relationship of Some MeO Phenylacrylonitriles: Dual Antimicrobial–Cytotoxic Effects and in Silico Perspectives” (ChemistryOpen, 2025)
In brackets after ≈: the same amount, converted by molar mass.

Experiments:
Type in all cases: cell-based
[1] = system: Candida albicans (ATCC-10231); assay: Agar diffusion, zone of inhibition; settings: C.albicans, antibiotics at 5 mg mL^−1
Text: (§1) The antibacterial and antifungal activities were reported utilizing the method described by the Clinical & Laboratory Standards Institute.^[ [31], [32] ^] Agar diffusion method was used to determine the antimicrobial activity of the synthesized substances. The media used were mueller hinton agar (MHA) for bacteria and sabouraud‐dextrose agar (SDA) for fungi (Merck), as recommended by the manufacturer.
(§2) The synthesized compounds were initially investigated for their antimicrobial activity to elucidate the potential therapeutic utility against various pathogenic microbes using the agar plate diffusion method. The compounds were tested at a concentration of 50 mg mL^−1, and the antibiotics (ampicillin, kanamycin, and amphotericin B) were used at 5 mg mL^−1. […] K.pneumoniae and B.cereus were resistant to ampicillin, while they were susceptible to kanamycin with inhibition values of 30 and 26 mm, respectively. No antimicrobial activity of the compounds was observed against E.faecalis, S.typhimurium, K.pneumoniae, and for the fungus compared to Amphotericin B (20 mm). […]
(§3) ATCC: American Type Culture Collection; NRRL: Northern Regional Research Laboratory The compounds 2(a-c) obtained could only be completely solubilised with dimethyl sulphoxide (DMSO) and the highest possible stock solutions of 50 mg.mL-1 were prepared. To these wells 50 μl of the previously prepared substances were transferred using sterile micropipette tips. For comparison, Ampicillin and kanamycin antibiotics for bacteria and Amphotericin B antibiotics for fungus were used as positive controls and DMSO was used as negative control. The prepared petri plates were kept at +4°C for about 1 hour and then the bacterial cultures were incubated at 37°C for 18-24 hours and mould cultures at 27-30°C for 48-72 hours. The zones formed were measured millimetrically with callipers. The experiments were performed with three repetitions. […]

[2] = system: Candida albicans (ATCC-10231); assay: MBC/MFC by sub-culture from wells without growth; settings: ATCC10231, C.albicans
Experimental: (§4) ATCC: American Type Culture Collection; NRRL: Northern Regional Research Laboratory The compounds 2(a-c) obtained could only be completely solubilised with dimethyl sulphoxide (DMSO) and the highest possible stock solutions of 50 mg.mL-1 were prepared. […]
(§5) 3.1. Determination of Minimum Inhibition Concentration (MIC)
(§6) The minimum inhibition concentration (MIC) values of the compounds 2(a-c) against the test bacteria used in the study were determined according to the broth microdilution method.[1-2] MHB or SDB was used as test medium and bacterial and yeast suspensions were prepared at 0.5 Mc Farland concentration for each test bacteria. Double layer serial dilutions were prepared in "U" type 96-well microtiter plates. Medium+bacteria suspensions containing only medium in the first row, medium+bacteria in the second row and the final concentrations of the synthesised substances in the other rows between 25 mg.mL-1 and […] were added to the wells with a final volume of 200
(§7) μL. Ampicillin, Kanamycin and Amphotericin B standard antibiotics were used as positive controls.
(§8) Bacteria were incubated at 37±0.1 °C and C. albicans at 30±0.1 °C for 24-48 hours and the lowest concentration without growth was determined as MIC. Tests were performed in two parallel runs and mean values were given as a result. […]

[3] = system: Escherichia coli (ATCC 25922); assay: Agar diffusion, zone of inhibition; settings: antibiotics at 5 mg mL^−1
Text: as §1, §2
(§9) Escherichia coli (ATCC 25922) […]
as §3

[4] = system: Pseudomonas aeruginosa (ATCC 27853); assay: Agar diffusion, zone of inhibition; settings: P.aeruginosa, antibiotics at 5 mg mL^−1
Text: as §1, §2
(§10) Pseudomonas aeruginosa (ATCC 27853) […]
as §3

[5] = system: Staphylococcus aureus (ATCC 29213); assay: Agar diffusion, zone of inhibition; settings: S.aureus, antibiotics at 5 mg mL^−1
Text: as §1, §2
(§11) Staphylococcus aureus (ATCC 29213) […]
as §3

[6] = system: Bacillus subtilis (ATCC-19659); assay: Agar diffusion, zone of inhibition; settings: B.subtilis, antibiotics at 5 mg mL^−1
Text: as §1, §2, §3

[7] = system: Enterococcus faecalis (ATCC 29212); assay: Agar diffusion, zone of inhibition; settings: ATCC29212, E.faecalis, antibiotics at 5 mg mL^−1
Text: as §1, §2
(§12) Enterococcus faecalis (ATCC 29212) […]
as §3

[8] = system: Salmonella typhimurium (NRRL-B-4420); assay: Agar diffusion, zone of inhibition; settings: Salmonella enterica; S.typhimurium; antibiotics at 5 mg mL^−1
Text: as §1, §2
Salmonella typhimurium (NRRL-B-4420) […]
as §3

[9] = system: Micrococcus luteus (NRRL-B-1018); assay: Agar diffusion, zone of inhibition; settings: M.luteus, antibiotics at 5 mg mL^−1
Text: as §1, §2
(§13) Micrococcus luteus (NRRL-B-1018) […]
as §3

[10] = system: Bacillus cereus (ATCC-10876); assay: Agar diffusion, zone of inhibition; settings: B.cereus, antibiotics at 5 mg mL^−1
Text: as §1
The synthesized compounds were initially investigated for their antimicrobial activity to elucidate the potential therapeutic utility against various pathogenic microbes using the agar plate diffusion method. The compounds were tested at a concentration of 50 mg mL^−1, and the antibiotics (ampicillin, kanamycin, and amphotericin B) were used at 5 mg mL^−1. […] K.pneumoniae and B.cereus were resistant to ampicillin, while they were susceptible to kanamycin with inhibition values of 30 and 26 mm, respectively. No antimicrobial activity of the compounds was observed against E.faecalis, S.typhimurium, K.pneumoniae, and for the fungus compared to Amphotericin B (20 mm).
(§14) Bacillus cereus (ATCC-10876) […]
as §3

[11] = system: Klebsiella pneumoniae (ATCC-70063); assay: Agar diffusion, zone of inhibition; settings: K.pneumoniae, antibiotics at 5 mg mL^−1
Text: as §1, §2
Klebsiella pneumoniae (ATCC-70063)
as §3

[12] = system: Escherichia coli (ATCC 25922); assay: Broth microdilution MIC; settings: ATCC25922, E.coli
Experimental: as §9, §4, §5, §6, §7, §8

[13] = system: Pseudomonas aeruginosa (ATCC 27853); assay: Broth microdilution MIC; settings: ATCC27853, P.aeruginosa
Experimental: as §10, §4, §5, §6, §7, §8

[14] = system: Staphylococcus aureus (ATCC 29213); assay: Broth microdilution MIC; settings: ATCC29213, S.aureus
Experimental: as §11, §4, §5, §6, §7, §8

[15] = system: Bacillus subtilis (ATCC-19659); assay: Broth microdilution MIC; settings: ATCC19659
Experimental: as §4, §5, §6, §7, §8

[16] = system: Micrococcus luteus (NRRL-B-1018); assay: Broth microdilution MIC; settings: NRRLB1018, M.luteus
Experimental: as §13, §4, §5, §6, §7, §8

[17] = system: Enterococcus faecalis (ATCC 29212); assay: Broth microdilution MIC; settings: ATCC29212, E.faecalis
Experimental: as §12, §4, §5, §6, §7, §8

[18] = system: Escherichia coli (ATCC 25922); assay: MBC by sub-culture from wells without growth; settings: ATCC25922, E.coli
Experimental: as §9, §4, §5, §6, §7, §8

[19] = system: Pseudomonas aeruginosa (ATCC 27853); assay: MBC by sub-culture from wells without growth; settings: ATCC27853, P.aeruginosa
Experimental: as §10, §4, §5, §6, §7
(§15) Bacteria were incubated at 37±0.1 °C and C. albicans at 30±0.1 °C for 24-48 hours and the lowest concentration without growth was determined as MIC. Tests were performed in two parallel runs and mean values were given as a result. In order to estimate “the minimum bactericidal/fungicidal concentrations (MBC/MFC) of the synthesised acrylonitrile derivatives “needed to indicate […] killing of the original inoculum,” 10 μl was taken from the wells with no observed growth and further sub-cultured onto their agar media (MHA and SDA for bacterial and fungal strains, respectively).[3] […]

[20] = system: Staphylococcus aureus (ATCC 29213); assay: MBC by sub-culture from wells without growth; settings: ATCC29213, S.aureus
Experimental: as §11, §4, §5, §6, §7, §15

[21] = system: Bacillus subtilis (ATCC-19659); assay: MBC by sub-culture from wells without growth; settings: ATCC19659, B.subtilis
Experimental: as §4, §5, §6, §7, §8

[22] = system: Micrococcus luteus (NRRL-B-1018); assay: MBC by sub-culture from wells without growth; settings: NRRLB1018, M.luteus
Experimental: as §13, §4, §5, §6, §7, §15

[23] = system: Enterococcus faecalis (ATCC 29212); assay: MBC by sub-culture from wells without growth; settings: ATCC29212, E.faecalis
Experimental: as §12, §4, §5, §6, §7, §8

[24] = system: Bacillus cereus (ATCC-10876); assay: Broth microdilution MIC; settings: B.cereus
Experimental: as §14, §4, §5, §6, §7, §8

[25] = system: Bacillus cereus (ATCC-10876); assay: MBC by sub-culture from wells without growth; settings: B.cereus
Experimental: as §14, §4, §5, §6, §7, §15

In the case of `C[C@@H]1[C@H](O)[C@@H](C)/C=C/C=C/C=C/C=C/C=C/C=C/C=C/[C@H](O[C@@H]2O[C@H](C)[C@@H](O)[C@H](N)[C@@H]2O)C[C@@H]2O[C@](O)(C[C@@H](O)C[C@@H](O)[C@H](O)CC[C@@H](O)C[C@@H](O)CC(=O)O[C@H]1C)C[C@H](O)[C@H]2C(=O)O` [Amphotericin B, reference compound], the zone of inhibition [1] is reported as 20 ± 0.71 mm, the zone of inhibition at 5 mg/mL ([1]; Candida albicans, ATCC10231) is reported as 20 mm and the MBC [2] is reported as 250 µg/mL (≈ 271 µM).
`CC1(C)S[C@@H]2[C@H](NC(=O)[C@H](N)c3ccccc3)C(=O)N2[C@H]1C(=O)O` [Ampicillin, reference compound] showed a zone of inhibition ([3]; E.coli) of 25 ± 0.71 mm, a zone of inhibition at 5 mg/mL ([3]; Escherichia coli, ATCC25922, E.coli) of 23 mm and a zone of inhibition [4] of 30 ± 0.71 mm. The zone of inhibition at 5 mg/mL ([4]; Pseudomonas aeruginosa, ATCC27853) was 30 mm, the zone of inhibition [5] was 24 ± 1.41 mm and the zone of inhibition at 5 mg/mL ([5]; Staphylococcus aureus, ATCC29213) was 24 mm. It also gave a zone of inhibition [6] of 32 ± 1.41 mm, a zone of inhibition at 5 mg/mL ([6]; Bacillus subtilis, ATCC19659) of 32 mm and a zone of inhibition at 5 mg/mL [7] of 34 ± 0.71 mm. The zone of inhibition at 5 mg/mL [8] was 25 mm, the zone of inhibition [9] was 44 ± 5.66 mm and the zone of inhibition at 5 mg/mL ([9]; Micrococcus luteus, NRRLB1018) was 44 mm. The zone of inhibition [10] was “resistant”, the zone of inhibition at 5 mg/mL ([10]; Bacillus cereus, ATCC10876) was less than 6 mm and the zone of inhibition [11] was “resistant”. For the same compound, the zone of inhibition at 5 mg/mL ([11]; Klebsiella pneumoniae, ATCC70063) was less than 6 mm, the MIC [12] was 31.2 µg/mL (≈ 89.4 µM) and the MIC [13] was 62.5 µg/mL (≈ 179 µM). The MIC [14] was 250 µg/mL (≈ 715 µM), the MIC [15] was 12.5 mg/mL (≈ 35800 µM) and the MIC [16] was 31.2 µg/mL (≈ 89.4 µM). The MIC [17] was 250 µg/mL (≈ 715 µM), the MBC [18] was 31.2 µg/mL (≈ 89.4 µM) and the MBC [19] was 62.5 µg/mL (≈ 179 µM). For the same compound, the MBC [20] was 250 µg/mL (≈ 715 µM), the MBC [21] was 25 mg/mL (≈ 71500 µM) and the MBC [22] was 31.2 µg/mL (≈ 89.4 µM). For the same compound, the MBC [23] was 250 µg/mL (≈ 715 µM).
`NC[C@H]1O[C@H](O[C@H]2[C@H](O)[C@@H](O[C@H]3O[C@H](CO)[C@@H](O)[C@H](N)[C@H]3O)[C@H](N)C[C@@H]2N)[C@H](O)[C@@H](O)[C@@H]1O` [Kanamycin, reference compound] showed a zone of inhibition [10] of 26 ± 1.41 mm, a zone of inhibition ([10]; listed as kanamycin) of 26 mm and a zone of inhibition [11] of 30 ± 0 mm. It also gave a zone of inhibition ([11]; listed as kanamycin) of 30 mm, an MIC [24] of 0.03125 mg/mL (≈ 64.5 µM) and an MBC [25] of 0.0625 mg/mL (≈ 129 µM).
